These results are taken from paper PMC3016297 (Bioorganic & medicinal chemistry, 2010).

Read-outs that look alike come from different tables or passages of the source.

One may read the EC50 as the midpoint of the concentration-response curve.

The subject of one test is HIV-1IIIB. Conditions: cited from earlier work; for EC50: HIV-1IIIB infected H9 lymphocytes.
The next test relates to HIV-1NL4-3. The experiment in a line: HIV-1NL4-3 inhibition assay in MT-4 lymphocytes. In kind it is cell-based. Conditions: HIV-1NL4-3 infected MT-4 cells; for fold more active than the corresponding compound not linked to AZT: 49 vs 63, 52 vs 64.
For test [1], the system named is mock-infected MT-4 cell. Conditions: read-out: IC50, concentration that inhibits mock-infected MT-4 cell growth by 50%; mock-infected MT-4 cells; cited from earlier work.
In test [2] the test system is mock-infected MT-4 cell. The experiment in a line: Growth inhibition of mock-infected MT-4 cells. Type of test: cell-based. The note with it: Homo sapiens, MT4, read-out: IC50, concentration that inhibits mock-infected MT-4 cell growth by 50%.

Consider `C=C(C)[C@@H]1CC[C@]2(COC(=O)CC(C)(C)CC(=O)O)CC[C@]3(C)[C@H](CC[C@@H]4[C@@]5(C)CC[C@H](OC(=O)CC(C)(C)CC(=O)O)C(C)(C)[C@@H]5CC[C@]43C)[C@@H]12` [Compound 5, 3,28-di-O-(3',3'-dimethylglutaryl)betulin], for which, in the test on HIV-1IIIB, the EC50 is 0.66 nM.
Consider `CC(C)[C@@H]1CC[C@]2(CO)CC[C@]3(C)[C@H](CC[C@@H]4[C@@]5(C)CC[C@H](OC(=O)CCCC(=O)O)C(C)(C)[C@@H]5CC[C@]43C)[C@@H]12` [Compound 4, 3-O-glutaryldihydrobetulin], for which, in the test with HIV-1IIIB, the EC50 is 0.02 nM.
As for `C=C(C)[C@@H]1CC[C@]2(COC(=O)CCC(=O)OC[C@H]3O[C@@H](n4cc(C)c(=O)[nH]c4=O)C[C@@H]3N=[N+]=[N-])CC[C@]3(C)[C@H](CC[C@@H]4[C@@]5(C)CC[C@H](OC(=O)CC(C)(C)C(=O)O)C(C)(C)[C@@H]5CC[C@]43C)[C@@H]12` [Compound 49, 3'-Azido-3'-deoxythymidine-5'-yl 3-O-(3',3'-dimethylsuccinyl)-lup-20(29)en-28-yl succinate], in the test with HIV-1NL4-3, the “fold more active than the corresponding compound not linked to AZT” value is on record as “four”.
Regarding `Cc1cn([C@H]2C[C@H](N=[N+]=[N-])C(COC(=O)CC(C)(C)CC(=O)OC[C@]34CC[C@@H](C(C)C)[C@@H]3[C@H]3CC[C@@H]5[C@@]6(C)CC[C@H](OC(=O)CC(C)(C)CC(=O)O)C(C)(C)[C@@H]6CC[C@@]5(C)[C@]3(C)CC4)O2)c(=O)[nH]c1=O` (stereo partly drawn) [Compound 62, 3'-Azido-3'-deoxythymidine-5'-yl 3-O-(3',3'-dimethylglutaryl)-lup-28-yl 3,3-dimethylglutarate], in the test with HIV-1NL4-3, the “anti-HIV activity in words” value is “only moderate activity”.
In the case of `C=C(C)[C@@H]1CC[C@]2(C(=O)O)CC[C@]3(C)[C@H](CC[C@@H]4[C@@]5(C)CC[C@H](OC(=O)CC(C)(C)C(=O)O)C(C)(C)[C@@H]5CC[C@]43C)[C@@H]12` [Compound 2, 3-O-(3',3'-dimethylsuccinyl)betulinic acid], in the test on mock-infected MT-4 cell [1], the IC50 is greater than 5000 nM. Also, the half-maximal effective concentration (EC50) in the test with HIV-1IIIB is less than 0.35 nM.
Take `C=C(C)[C@@H]1CC[C@]2(COC(=O)CC(C)(C)CC(=O)OC[C@H]3O[C@@H](n4cc(C)c(=O)[nH]c4=O)C[C@@H]3N=[N+]=[N-])CC[C@]3(C)[C@H](CC[C@@H]4[C@@]5(C)CC[C@H](OC(=O)CC(C)(C)CC(=O)O)C(C)(C)[C@@H]5CC[C@]43C)[C@@H]12` [Compound 54, 3'-Azido-3'-deoxythymidine-5'-yl 3-O-(3',3'-dimethylglutaryl)-lup-20(29)en-28-yl 3,3-dimethylglutarate]: the “anti-HIV activity in words” value with HIV-1NL4-3 is listed as “only moderate activity”.
Regarding `C=C(C)[C@@H]1CC[C@]2(COC(=O)C(C)(C)CC(=O)O)CC[C@]3(C)[C@H](CC[C@@H]4[C@@]5(C)CC[C@H](OC(=O)CC(C)(C)C(=O)O)C(C)(C)[C@@H]5CC[C@]43C)[C@@H]12` [Compound 6, 3-O-(3',3'-dimethylsuccinyl)-28-O-(2",2"-dimethylsuccinyl)betulin], in the test on HIV-1IIIB (H9 lymphocytes assay), the “fold more potent against HIV replication than its isomer with a 3,3-dimethylsuccinyl side chain at C-28” value is 230 fold. Further, the EC50 in the test on HIV-1IIIB is 0.87 nM.
On to `Cc1cn([C@H]2C[C@H](N=[N+]=[N-])C(COC(=O)CC(C)(C)CC(=O)OC[C@]34CC[C@@H](C(C)C)[C@@H]3[C@H]3CC[C@@H]5[C@@]6(C)CC[C@H](OC(=O)CCCC(=O)O)C(C)(C)[C@@H]6CC[C@@]5(C)[C@]3(C)CC4)O2)c(=O)[nH]c1=O` (stereo partly drawn) [Compound 61, 3'-Azido-3'-deoxythymidine-5'-yl 3-O-glutaryl-lup-28-yl 3,3-dimethylglutarate], for which the “anti-HIV activity in words” value in the test with HIV-1NL4-3 is listed as “the weakest compound”.
For the compound `C=C(C)[C@@H]1CC[C@]2(COC(=O)CCCC(=O)OC[C@H]3O[C@@H](n4cc(C)c(=O)[nH]c4=O)C[C@@H]3N=[N+]=[N-])CC[C@]3(C)[C@H](CC[C@@H]4[C@@]5(C)CC[C@H](OC(=O)CC(C)(C)C(=O)O)C(C)(C)[C@@H]5CC[C@]43C)[C@@H]12` [Compound 52, 3'-Azido-3'-deoxythymidine-5'-yl 3-O-(3',3'-dimethylsuccinyl)-lup-20(29)en-28-yl glutarate], in the test on HIV-1NL4-3, the “fold more active than the corresponding compound not linked to AZT” value was “five”.
Turning to `C=C(C)[C@@H]1CC[C@]2(COC(=O)CCCC(=O)O)CC[C@]3(C)[C@H](CC[C@@H]4[C@@]5(C)CC[C@H](OC(=O)CC(C)(C)C(=O)O)C(C)(C)[C@@H]5CC[C@]43C)[C@@H]12` [Compound 64], the IC50 with mock-infected MT-4 cell [2] is greater than 14600 nM.
